From the NIST ThermoML archive (doi:10.1021/je020065c)
Numbers after ± are expanded uncertainties.

Tests used:
[1] = 303.1 K; 101.33 kPa; Liquid; pycnometer
[2] = Boiling temperature at pressure P; details: 101.3 kPa; Liquid; ebulliometry
[3] = excess molar enthalpy (molar enthalpy of mixing); xn = mol fraction of the nth substance listed; details: 298.15 K, 101.3 kPa, Liquid

## CC(Cl)(Cl)Cl [1,1,1-trichloroethane]
[1]
  mass density: 1320.94 ± 0.88 kg/m3
[2]
  Boiling temperature at pressure P: 74.20 ± 0.5 °C

## CC(Cl)(Cl)Cl [1,1,1-trichloroethane] + CN1CCCC1=O
[3]; x1 = 0.0303
  excess molar enthalpy: -0.0145 ± 0.0012 kcal/mol
[3]; x1 = 0.0662
  excess molar enthalpy: -0.0323 ± 0.00174 kcal/mol
[3]; x1 = 0.1039
  excess molar enthalpy: -0.0497 ± 0.00232 kcal/mol
[3]; x1 = 0.1525
  excess molar enthalpy: -0.0702 ± 0.00311 kcal/mol
[3]; x1 = 0.2006
  excess molar enthalpy: -0.0895 ± 0.00359 kcal/mol
[3]; x1 = 0.2534
  excess molar enthalpy: -0.106 ± 0.0043 kcal/mol
[3]; x1 = 0.3046
  excess molar enthalpy: -0.122 ± 0.00478 kcal/mol
[3]; x1 = 0.3555
  excess molar enthalpy: -0.133 ± 0.00526 kcal/mol
[3]; x1 = 0.4018
  excess molar enthalpy: -0.139 ± 0.00526 kcal/mol
[3]; x1 = 0.4556
  excess molar enthalpy: -0.139 ± 0.0055 kcal/mol
[3]; x1 = 0.5054
  excess molar enthalpy: -0.139 ± 0.00526 kcal/mol
[3]; x1 = 0.5576
  excess molar enthalpy: -0.137 ± 0.00526 kcal/mol
[3]; x1 = 0.6104
  excess molar enthalpy: -0.141 ± 0.0055 kcal/mol
[3]; x1 = 0.6634
  excess molar enthalpy: -0.141 ± 0.0055 kcal/mol
[3]; x1 = 0.7153
  excess molar enthalpy: -0.135 ± 0.00526 kcal/mol
[3]; x1 = 0.7694
  excess molar enthalpy: -0.122 ± 0.00478 kcal/mol
[3]; x1 = 0.8172
  excess molar enthalpy: -0.117 ± 0.00454 kcal/mol
[3]; x1 = 0.8714
  excess molar enthalpy: -0.103 ± 0.00406 kcal/mol
[3]; x1 = 0.9228
  excess molar enthalpy: -0.0783 ± 0.00335 kcal/mol
[3]; x1 = 0.9649
  excess molar enthalpy: -0.0437 ± 0.0021 kcal/mol

## ClC(Cl)C(Cl)Cl [1,1,2,2-tetrachloroethane]
[1]
  mass density: 1578.58 ± 1.1 kg/m3
[2]
  Boiling temperature at pressure P: 146.20 ± 0.5 °C

## ClC(Cl)C(Cl)Cl [1,1,2,2-tetrachloroethane] + CN1CCCC1=O
[3]; x1 = 0.0331
  excess molar enthalpy: -0.113 ± 0.00454 kcal/mol
[3]; x1 = 0.0582
  excess molar enthalpy: -0.205 ± 0.00765 kcal/mol
[3]; x1 = 0.0765
  excess molar enthalpy: -0.256 ± 0.00956 kcal/mol
[3]; x1 = 0.1279
  excess molar enthalpy: -0.426 ± 0.0153 kcal/mol
[3]; x1 = 0.1292
  excess molar enthalpy: -0.413 ± 0.0148 kcal/mol
[3]; x1 = 0.1796
  excess molar enthalpy: -0.555 ± 0.0198 kcal/mol
[3]; x1 = 0.2318
  excess molar enthalpy: -0.704 ± 0.0239 kcal/mol
[3]; x1 = 0.2344
  excess molar enthalpy: -0.695 ± 0.0239 kcal/mol
[3]; x1 = 0.288
  excess molar enthalpy: -0.838 ± 0.0287 kcal/mol
[3]; x1 = 0.3219
  excess molar enthalpy: -0.893 ± 0.0311 kcal/mol
[3]; x1 = 0.34
  excess molar enthalpy: -0.963 ± 0.0335 kcal/mol
[3]; x1 = 0.4028
  excess molar enthalpy: -1.01 ± 0.0359 kcal/mol
[3]; x1 = 0.4675
  excess molar enthalpy: -1.09 ± 0.0382 kcal/mol
[3]; x1 = 0.5226
  excess molar enthalpy: -1.14 ± 0.0406 kcal/mol
[3]; x1 = 0.5688
  excess molar enthalpy: -1.16 ± 0.0406 kcal/mol
[3]; x1 = 0.5953
  excess molar enthalpy: -1.16 ± 0.0406 kcal/mol
[3]; x1 = 0.6265
  excess molar enthalpy: -1.09 ± 0.0382 kcal/mol
[3]; x1 = 0.6815
  excess molar enthalpy: -1 ± 0.0359 kcal/mol
[3]; x1 = 0.7384
  excess molar enthalpy: -0.89 ± 0.0311 kcal/mol
[3]; x1 = 0.7933
  excess molar enthalpy: -0.742 ± 0.0263 kcal/mol
[3]; x1 = 0.8536
  excess molar enthalpy: -0.533 ± 0.0191 kcal/mol
[3]; x1 = 0.9099
  excess molar enthalpy: -0.354 ± 0.0129 kcal/mol
[3]; x1 = 0.9574
  excess molar enthalpy: -0.179 ± 0.00669 kcal/mol

## ClCCCl [1,2-dichloroethane]
[1]
  mass density: 1238.3 ± 0.8 kg/m3
[2]
  Boiling temperature at pressure P: 83.80 ± 0.5 °C

## ClCCCl [1,2-dichloroethane] + CN1CCCC1=O
[3]; x1 = 0.0658
  excess molar enthalpy: -0.0565 ± 0.00263 kcal/mol
[3]; x1 = 0.1316
  excess molar enthalpy: -0.11 ± 0.0043 kcal/mol
[3]; x1 = 0.1959
  excess molar enthalpy: -0.159 ± 0.00598 kcal/mol
[3]; x1 = 0.2633
  excess molar enthalpy: -0.205 ± 0.00765 kcal/mol
[3]; x1 = 0.331
  excess molar enthalpy: -0.248 ± 0.00908 kcal/mol
[3]; x1 = 0.3947
  excess molar enthalpy: -0.282 ± 0.0103 kcal/mol
[3]; x1 = 0.4525
  excess molar enthalpy: -0.301 ± 0.011 kcal/mol
[3]; x1 = 0.592
  excess molar enthalpy: -0.267 ± 0.0098 kcal/mol
[3]; x1 = 0.6421
  excess molar enthalpy: -0.246 ± 0.00908 kcal/mol
[3]; x1 = 0.6925
  excess molar enthalpy: -0.217 ± 0.00813 kcal/mol
[3]; x1 = 0.7469
  excess molar enthalpy: -0.194 ± 0.00717 kcal/mol
[3]; x1 = 0.8024
  excess molar enthalpy: -0.162 ± 0.00621 kcal/mol
[3]; x1 = 0.856
  excess molar enthalpy: -0.123 ± 0.00478 kcal/mol
[3]; x1 = 0.9111
  excess molar enthalpy: -0.0802 ± 0.00335 kcal/mol
[3]; x1 = 0.9608
  excess molar enthalpy: -0.0403 ± 0.00198 kcal/mol

## CN1CCCC1=O [N-methylpyrrolidone]
[1]
  mass density: 1023.4 ± 0.7 kg/m3
[2]
  Boiling temperature at pressure P: 202.30 ± 0.5 °C

## ClC(Cl)=C(Cl)Cl [tetrachloroethene]
[1]
  mass density: 1606.4 ± 1.1 kg/m3
[2]
  Boiling temperature at pressure P: 121.00 ± 0.5 °C

## ClC(Cl)=C(Cl)Cl [tetrachloroethene] + CN1CCCC1=O
[3]; x1 = 0.039
  excess molar enthalpy: -0.00239 ± 0.000813 kcal/mol
[3]; x1 = 0.0887
  excess molar enthalpy: -0.00292 ± 0.000837 kcal/mol
[3]; x1 = 0.1357
  excess molar enthalpy: -0.0012 ± 0.000789 kcal/mol
[3]; x1 = 0.2415
  excess molar enthalpy: 0.007 ± 0.000956 kcal/mol
[3]; x1 = 0.2932
  excess molar enthalpy: 0.0137 ± 0.00117 kcal/mol
[3]; x1 = 0.3454
  excess molar enthalpy: 0.0214 ± 0.00141 kcal/mol
[3]; x1 = 0.536
  excess molar enthalpy: 0.0623 ± 0.00263 kcal/mol
[3]; x1 = 0.6006
  excess molar enthalpy: 0.0709 ± 0.00311 kcal/mol
[3]; x1 = 0.6688
  excess molar enthalpy: 0.0803 ± 0.00335 kcal/mol
[3]; x1 = 0.742
  excess molar enthalpy: 0.0775 ± 0.00335 kcal/mol
[3]; x1 = 0.813
  excess molar enthalpy: 0.0706 ± 0.00311 kcal/mol
[3]; x1 = 0.8822
  excess molar enthalpy: 0.0566 ± 0.00263 kcal/mol
[3]; x1 = 0.9441
  excess molar enthalpy: 0.0342 ± 0.00179 kcal/mol

## ClC=C(Cl)Cl [trichloroethene]
[1]
  mass density: 1451.2 ± 1 kg/m3
[2]
  Boiling temperature at pressure P: 87.10 ± 0.5 °C

## ClC=C(Cl)Cl [trichloroethene] + CN1CCCC1=O
[3]; x1 = 0.0381
  excess molar enthalpy: -0.0454 ± 0.00215 kcal/mol
[3]; x1 = 0.0886
  excess molar enthalpy: -0.106 ± 0.0043 kcal/mol
[3]; x1 = 0.1426
  excess molar enthalpy: -0.158 ± 0.00598 kcal/mol
[3]; x1 = 0.2005
  excess molar enthalpy: -0.216 ± 0.00813 kcal/mol
[3]; x1 = 0.2675
  excess molar enthalpy: -0.276 ± 0.01 kcal/mol
[3]; x1 = 0.3373
  excess molar enthalpy: -0.343 ± 0.0124 kcal/mol
[3]; x1 = 0.4001
  excess molar enthalpy: -0.394 ± 0.0141 kcal/mol
[3]; x1 = 0.6547
  excess molar enthalpy: -0.343 ± 0.0124 kcal/mol
[3]; x1 = 0.7095
  excess molar enthalpy: -0.315 ± 0.0115 kcal/mol
[3]; x1 = 0.7643
  excess molar enthalpy: -0.28 ± 0.0103 kcal/mol
[3]; x1 = 0.8186
  excess molar enthalpy: -0.23 ± 0.0086 kcal/mol
[3]; x1 = 0.873
  excess molar enthalpy: -0.176 ± 0.00669 kcal/mol
[3]; x1 = 0.9254
  excess molar enthalpy: -0.112 ± 0.00454 kcal/mol
[3]; x1 = 0.9678
  excess molar enthalpy: -0.0504 ± 0.00234 kcal/mol
